Assay results as given in patent publication US6660742B2, “Compositions and methods of the use thereof achiral analogues of CC-1065 and the duocarmycins” (priority 2000, dated 2003).
Read-outs that look alike come from different tables or passages of the source.

Key:
UACC-62 = test: NCI screen, UACC-62 (Melanoma)
Experimental: (§1) The compounds of this invention were also tested against the panel of 60 human cancer cell lines at the National Cancer Institute, Bethesda, Md. […] The cytrotoxicity studies were conducted using a 48 hour exposure, and measuring the optical density of sulforhodamide B-derived color.

SK-MEL-2 = test: NCI screen, SK-MEL-2 (Melanoma)
Experimental: as §1

[1] = system: PC3 (human prostate cancer cells); test: SRB cytotoxicity on PC3 cells; format: cell-based
Experimental: (§2) Cells were seeded in 96-well microtiter plates at densities of 1000 cells/well. The optimal seeding density was determined to ensure exponential growth in control wells throughout the experimental period and to obtain a linear relationship between absorbance at 492 nm and cell number when analyzed by the sulforhodamine B (SRB) assay (43). 24 hours after seeding the cells were incubated for 1 hour or continuously for 3 days with the drugs (concentration range 0.01 to 500 μM). The cells were washed once and then incubated in drug free medium for 6 days. At the end of the incubation cell growth was determined by the SRB assay, which quantifies viable cells by measuring their total cellular protein content. […] Similar studies were conducted against the growth of PC3 (human prostate cancer cells) and MCF-7 (human breast cancer cells).

[2] = system: human colon adenocarcinoma cell line, LS 174T; test: SRB cytotoxicity on LS174T cells; format: cell-based
Experimental: as §2

[3] = system: K562 human chronic myeloid leukemia cells; test: MTT cytotoxicity on K562 cells; format: cell-based; conditions: K562 cells
NCI-H23 = test: NCI screen, NCI-H23 (Non-Small Cell Lung Cancer)
Experimental: as §1

P815 mastocytoma cells = test: MTT cytotoxicity on P815 cells; format: cell-based, murine; conditions: 72 hr incubation
Experimental: The P815 and L1210 cell lines were obtained from American Type Tissue Culture Collection (ATCC). The cell lines were grown in Delbecco's Modified Eagle Medium (DMEM, Atlanta Biologicals) supplemented with 10% fetal bovine serum, Hepes Buffer (2 mM, Mediatech Cellgro, 25-060-Cl), L-Glutamine (2 mM, Mediatech Cellgro), and penicillin/streptomycin (50,000 units penicillin, 50,000 […], Atlanta Biologicals). Cells were maintained at 37° C. in a 5% humidified CO2 atmosphere. Cultured cells were counted using a hemocytometer and resuspended in fresh DMEM at a concentration of 8×10^5 cells/mL. This cell suspension (100 μL) was added to 96 well flat -bottom cell culture plates. At this concentration, 80,000 cells were seeded in each well. Drug solutions (dissolved in DMSO and diluted in DMEM) were added to each well (5 μL/well) resulting in final concentrations ranging from 1×10^−4 to 1×10^−12 M. Quadruplicate wells were prepared for each drug concentration. The plates were incubated for 72 hr at 37° C. in a 5% CO2 atmosphere. MTT (3-(4,5-dimethylthiazol-2-yl)-2,5-diphenyl tetrazolium bromide) was dissolved in PBS (5 mg/ml). After the indicated cell incubation period, 10 μL of this stock MTT solution was added to each well and the plates were further incubated for 4 h at 37° C. in a 5% CO2 atmosphere. […] The contents of the well were mixed thoroughly by pipetting the cell suspension up and down and the plates were allowed to sit at room temperature for 15 min in order to allow for full development of the purple color. The plates were read on a Dynatech Plate Reader, utilizing Dynex Revelation 3.2 software, with a test wavelenth of 570 nm and a reference wavelength of 630 nm.

CCRF-CEM = test: NCI screen, CCRF-CEM (Leukemia)
Experimental: as §1

RXF 393 [4] = test: NCI screen, RXF 393 (Renal Cancer)
Experimental: as §1

LOX IMVI = test: NCI screen, LOX IMVI (Melanoma)
Experimental: The compounds of this invention were also tested against the panel of 60 human cancer cell lines at the National Cancer Institute, Bethesda, Md. (44). The cytrotoxicity studies were conducted using a 48 hour exposure, and measuring the optical density of sulforhodamide B-derived color.

RXF 393 [5] = system: RXF 393
Experimental: as §1

NCI-H460 = test: NCI screen, NCI-H460 (Non-Small Cell Lung Cancer); format: cell-based, human
Experimental: as §1

A498 = test: NCI screen, A498 (Renal Cancer); format: cell-based, human
Experimental: as §1

[6] = Log10 Concentration −4.3, 48 hour exposure
[7] = Log10 Concentration −5.3, 48 hour exposure
[8] = Log10 Concentration −6.3, 48 hour exposure
[9] = Log10 Concentration −7.3, 48 hour exposure
[10] = Log10 Concentration −8.3, 48 hour exposure

Experimental for DU-145: as §1
Experimental for MALME-3M: as §1
Experimental for MCF7: as §1
Experimental for MOLT-4: as §1
Experimental for OVCAR-5: as §1
Experimental for SK-MEL-28: as §1
Experimental for U251: as §1
Experimental for UO-31: as §1

O=C(Nc1cc(O)ccc1CCCl)c1cc2cc(NC(=O)c3cc4ccccc4o3)ccc2[nH]1 [Compound 1, 4-(2-Chloroethyl)-3-[5-(5-benzofuran-2-carboxamido)indole-2-carboxamido]phenol]
GI50 (UACC-62): 1970 nM
TGI (UACC-62): 3.49E−06 Molar
Percent Growth (UACC-62; Log10 Concentration −4.0): −99%
Percent Growth (UACC-62; Log10 Concentration −7.0): 104%
Percent Growth (UACC-62; Log10 Concentration −8.0): 100%
CC50 (UO-31): 20000 nM
GI50 (SK-MEL-2): 1320 nM
TGI (SK-MEL-2): 2.67E−06 Molar
Percent Growth (SK-MEL-2; Log10 Concentration −4.0): −91%
Percent Growth (SK-MEL-2; Log10 Concentration −7.0): 101%
IC50 ([1]; continuous exposure, read-out: IC50 PC3 Continuous exposure): 3000 nM
IC50 ([1]; read-out: IC50 PC3 1 hour exposure, 1 hour exposure): 82400 nM
CC50 (U251): 53900 nM
IC50 ([2]; continuous exposure, read-out: IC50 LS174T Continuous exposure): 2270 nM
IC50 ([2]; read-out: IC50 LS174T 1 hour exposure, 1 hour exposure): 18000 nM
IC50 ([3]; continuous exposure (3 days), read-out: IC50 continuous exposure (3 days)): 1470 ± 800 nM
IC50 ([3]; read-out: IC50 1 hour exposure, 1 hour exposure): 12100 ± 1800 nM
GI50 (KM12): 18800 nM
Percent Growth (KM12): 93%
TGI (KM12): 3.50E−05 Molar
GI50 (NCI-H23): 1670 nM
TGI (NCI-H23): 3.38E−06 Molar
Percent Growth (NCI-H23; Log10 Concentration −4.0): −61%
GI50 (MALME-3M): 1840 nM
TGI (MALME-3M): 3.56E−06 Molar
Percent Growth (MALME-3M; Log10 Concentration −4.0): −95%
Percent Growth (MALME-3M; Log10 Concentration −7.0): 102%
Percent Growth (MALME-3M; Log10 Concentration −8.0): 102%
IC50 (P815 mastocytoma cells): 43000 nM
GI50 (CCRF-CEM): 1260 nM
TGI (CCRF-CEM): 5.28E−06 Molar
Percent Growth (CCRF-CEM; Log10 Concentration −4.0): −13%
CC50 (MOLT-4): > 100000 nM
CC50 (MCF7): 5000 nM
GI50 (RXF 393 [4]): 982 nM
TGI (RXF 393 [4]): 2.18E−06 Molar
Percent Growth (RXF 393 [4]; Log10 Concentration −4.0): −94%
Percent Growth (RXF 393 [4]; Log10 Concentration −5.0): −97%
Percent Growth (RXF 393 [4]; Log10 Concentration −6.0): 50%
Percent Growth (RXF 393 [4]; Log10 Concentration −7.0): 74%
Percent Growth (RXF 393 [4]; Log10 Concentration −8.0): 104%
Percent Growth (LOX IMVI): 106%
GI50 (LOX IMVI; LOX IMVI): 2430 nM
TGI (LOX IMVI; LOX IMVI): 6.93E−06 Molar
Percent Growth (LOX IMVI; LOX IMVI, Log10 Concentration −4.0): −70%
Percent Growth (LOX IMVI; LOX IMVI, Log10 Concentration −5.0): −17%
Percent Growth (LOX IMVI; LOX IMVI, Log10 Concentration −6.0): 92%
Percent Growth (LOX IMVI; LOX IMVI, Log10 Concentration −7.0): 101%
CC50 (OVCAR-5): 20000 nM
Percent Growth (OVCAR-5): −29%
GI50 (OVCAR-5; OVCAR-5): 2280 nM
TGI (OVCAR-5; OVCAR-5): 5.80E−06 Molar
Percent Growth (OVCAR-5; OVCAR-5, Log10 Concentration −4.0): −99%
Percent Growth (OVCAR-5; OVCAR-5, Log10 Concentration −6.0): 94%
Percent Growth (OVCAR-5; OVCAR-5, Log10 Concentration −7.0): 95%
Percent Growth (OVCAR-5; OVCAR-5, Log10 Concentration −8.0): 94%
Percent Growth (DU-145): 53%
GI50 (DU-145; DU-145): 1120 nM
TGI (DU-145; DU-145): 6.16E−06 Molar
Percent Growth (DU-145; DU-145, Log10 Concentration −4.0): −96%
Percent Growth (DU-145; DU-145, Log10 Concentration −5.0): −14%
Percent Growth (DU-145; DU-145, Log10 Concentration −7.0): 104%
Percent Growth (DU-145; DU-145, Log10 Concentration −8.0): 101%
CC50 (SK-MEL-28): 21400 nM
CC50 (RXF 393 [5]): 4770 nM

COC(=O)c1[nH]c2c(O)cc(NC(=O)c3cc4cc(OC)c(OC)c(OC)c4[nH]3)c(CCCl)c2c1C(=O)OC [Compound 22, Dimethyl 4-(2-chloroethyl)-7-hydroxy-5-(5,6,7-trimethoxyindole-2-carboxamido)indole-2,3-dicarboxylate]
TGI (UACC-62; 48 hour exposure): 1.85E−07 Molar
Percent Growth (UACC-62; [6]): −89%
Percent Growth (UACC-62; [7]): −78%
Percent Growth (UACC-62; [8]): −58%
Percent Growth (UACC-62; [9]): 76%
Percent Growth (UACC-62; [10]): 90%
TGI (SK-MEL-2; 48 hour exposure): 1.69E−07 Molar
Percent Growth (SK-MEL-2; [6]): −87%
Percent Growth (SK-MEL-2; [7]): −74%
Percent Growth (SK-MEL-2; [8]): −78%
Percent Growth (SK-MEL-2; [9]): 87%
Percent Growth (SK-MEL-2; [10]): 89%
TGI (NCI-H460; 48 hour exposure): 5.64E−06 Molar
Percent Growth (NCI-H460; [6]): −69%
Percent Growth (NCI-H460; [7]): 4%
Percent Growth (NCI-H460; [8]): 8%
Percent Growth (NCI-H460; [9]): 73%
Percent Growth (NCI-H460; [10]): 84%
TGI (KM12): 2.03E−07 Molar
TGI (NCI-H23; 48 hour exposure): 5.63E−06 Molar
Percent Growth (NCI-H23; [6]): −25%
Percent Growth (NCI-H23; [7]): 1%
Percent Growth (NCI-H23; [8]): 9%
Percent Growth (NCI-H23; [9]): 56%
Percent Growth (NCI-H23; [10]): 83%
TGI (CCRF-CEM; 48 hour exposure): >5.00E−05 Molar
Percent Growth (CCRF-CEM; [6]): 17%
Percent Growth (CCRF-CEM; [7]): 18%
Percent Growth (CCRF-CEM; [8]): 19%
Percent Growth (CCRF-CEM; [9]): 43%
Percent Growth (CCRF-CEM; [10]): 77%
TGI (A498; 48 hour exposure): 5.15E−06 Molar
Percent Growth (A498; [6]): −82%
Percent Growth (A498; [7]): 1%
Percent Growth (A498; [8]): 5%
Percent Growth (A498; [9]): 98%
Percent Growth (A498; [10]): 95%
TGI (RXF 393 [4]; 48 hour exposure): 1.31E−06 Molar
Percent Growth (RXF 393 [4]; [6]): −65%
Percent Growth (RXF 393 [4]; [7]): −25%
Percent Growth (RXF 393 [4]; [8]): 18%
Percent Growth (RXF 393 [4]; [9]): 57%
Percent Growth (RXF 393 [4]; [10]): 94%
TGI (LOX IMVI; LOX IMVI, 48 hour exposure): 3.84E−07 Molar
Percent Growth (LOX IMVI; LOX IMVI, Log10 Concentration −4.3, 48 hour exposure): −61%
Percent Growth (LOX IMVI; LOX IMVI, Log10 Concentration −5.3, 48 hour exposure): −23%
Percent Growth (LOX IMVI; LOX IMVI, Log10 Concentration −6.3, 48 hour exposure): −9%
Percent Growth (LOX IMVI; LOX IMVI, Log10 Concentration −7.3, 48 hour exposure): 66%
Percent Growth (LOX IMVI; LOX IMVI, Log10 Concentration −8.3, 48 hour exposure): 81%
